According to ChEMBL document CHEMBL1156616, “Syntheses and biological evaluation of topoisomerase I-targeting agents related to 11-[2-(N,N-dimethylamino)ethyl]-2,3-dimethoxy-8,9-methylenedioxy-11H-isoquino[4,3-c]cinnolin-12-one (ARC-31)” (Bioorg Med Chem, 2008):

Columns and labels:
[1] = Cytotoxicity against human multidrug resistant MDR1 overexpressing human KBV1 cells after 4 days by MTT assay; type: functional, cell-based; conditions: KB-V1, 96 h
[2] = Cytotoxicity against human camptothecin-resistant CPT-K5 cells after 4 days by MTT assay; type: functional, cell-based; conditions: CPT-K5, 96 h
[3] = Cytotoxicity against human KB3-1 cells after 4 days by MTT assay; type: functional, cell-based; conditions: KB 3-1, 96 h
P388 [4] = experiment: Cytotoxicity against mouse CPT45-resistant topoisomerase 1-deficient P388 cells after 4 days by MTT assay; type: functional, cell-based; conditions: P388, 96 h
P388 [5] = experiment: Cytotoxicity against mouse P388 cells after 4 days by MTT assay; type: functional, cell-based; conditions: P388, 96 h
[6] = target: T1, DNA topoisomerase 1 (Homo sapiens) (UniProt P11387); experiment: Inhibition of human topoisomerase 1 expressed in Escherichia coli assessed as YepG plasmid DNA cleavage
T1 sequence (whole entry): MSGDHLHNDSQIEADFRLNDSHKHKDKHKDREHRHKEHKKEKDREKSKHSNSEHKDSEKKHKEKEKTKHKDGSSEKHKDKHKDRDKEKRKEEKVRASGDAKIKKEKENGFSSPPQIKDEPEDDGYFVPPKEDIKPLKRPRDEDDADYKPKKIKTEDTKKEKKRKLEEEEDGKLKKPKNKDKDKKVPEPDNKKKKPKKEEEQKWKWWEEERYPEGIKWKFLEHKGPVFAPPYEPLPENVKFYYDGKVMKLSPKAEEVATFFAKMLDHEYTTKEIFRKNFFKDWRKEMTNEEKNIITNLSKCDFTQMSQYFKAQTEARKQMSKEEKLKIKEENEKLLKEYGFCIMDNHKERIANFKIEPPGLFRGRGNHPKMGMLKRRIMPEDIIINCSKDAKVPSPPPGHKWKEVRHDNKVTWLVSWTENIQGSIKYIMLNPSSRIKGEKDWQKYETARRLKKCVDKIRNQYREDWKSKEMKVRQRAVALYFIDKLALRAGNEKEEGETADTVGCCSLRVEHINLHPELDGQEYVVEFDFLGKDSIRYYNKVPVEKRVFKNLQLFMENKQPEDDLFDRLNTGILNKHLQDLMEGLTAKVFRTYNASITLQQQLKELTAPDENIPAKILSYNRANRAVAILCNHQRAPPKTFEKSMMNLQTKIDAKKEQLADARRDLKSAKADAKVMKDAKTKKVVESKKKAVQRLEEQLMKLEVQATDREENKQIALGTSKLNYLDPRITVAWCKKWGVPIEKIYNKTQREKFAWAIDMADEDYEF

[7] = Cytotoxicity against human multidrug resistant BCRP overexpressing human KBH5.0 cells after 4 days by MTT assay; type: functional, cell-based; conditions: KBH5.0 cell, 96 h
[8] = Cytotoxicity against human RPMI8402 cells after 4 days by MTT assay; type: functional, cell-based; conditions: RPMI 8402, 96 h
MDA-MB-231 [9] = experiment: Antitumor activity against human MDA-MB-231 cells xenografted in athymic nude mouse assessed as tumor volume on day 14 at initial dose of 2.0 mg/kg, po qd X 4/week and dose adjustments were made based upon effect or lack of effect on average body weight (29.3 mg/kg total dose); type: functional
MDA-MB-231 [10] = experiment: Antitumor activity against human MDA-MB-231 cells xenografted in athymic nude mouse assessed as tumor volume on day 14 at initial dose of 1.0 mg/kg, ip qd X 4/week and dose adjustments were made based upon effect or lack of effect on average body weight (14.6 mg/kg total dose); type: functional; conditions: route intraperitoneal
MDA-MB-231 [11] = experiment: Antitumor activity against human MDA-MB-231 cells xenografted in athymic nude mouse assessed as tumor volume on day 7 at initial dose of 2.0 mg/kg, po qd X 4/week and dose adjustments were made based upon effect or lack of effect on average body weight (29.3 mg/kg total dose); type: functional
MDA-MB-231 [12] = experiment: Antitumor activity against human MDA-MB-231 cells xenografted in athymic nude mouse assessed as tumor volume on day 21 at initial dose of 1.0 mg/kg, ip qd X 4/week and dose adjustments were made based upon effect or lack of effect on average body weight (14.6 mg/kg total dose); type: functional; conditions: route intraperitoneal
MDA-MB-231 [13] = experiment: Antitumor activity against human MDA-MB-231 cells xenografted in athymic nude mouse assessed as tumor volume on day 31 at initial dose of 2.0 mg/kg, po qd X 4/week and dose adjustments were made based upon effect or lack of effect on average body weight (29.3 mg/kg total dose); type: functional
MDA-MB-231 [14] = experiment: Antitumor activity against human MDA-MB-231 cells xenografted in athymic nude mouse assessed as tumor volume on day 7 at initial dose of 1.0 mg/kg, ip qd X 4/week and dose adjustments were made based upon effect or lack of effect on average body weight (14.6 mg/kg total dose); type: functional; conditions: route intraperitoneal
MDA-MB-231 [15] = experiment: Antitumor activity against human MDA-MB-231 cells xenografted in athymic nude mouse assessed as tumor volume on day 31 at initial dose of 1.0 mg/kg, ip qd X 4/week and dose adjustments were made based upon effect or lack of effect on average body weight (14.6 mg/kg total dose); type: functional; conditions: route intraperitoneal
MDA-MB-231 [16] = experiment: Antitumor activity against human MDA-MB-231 cells xenografted in athymic nude mouse assessed as tumor volume on day 21 at initial dose of 2.0 mg/kg, po qd X 4/week and dose adjustments were made based upon effect or lack of effect on average body weight (29.3 mg/kg total dose); type: functional
MDA-MB-231 [17] = experiment: Antitumor activity against human MDA-MB-231 cells xenografted in athymic nude mouse assessed as tumor volume on day 31 at initial dose of 2.0 mg/kg, ip qd X 5/week for 2 weeks and dose adjustments were made based upon effect or lack of effect on average body weight (32.5 mg/kg total dose); type: functional; conditions: route intraperitoneal
MDA-MB-231 [18] = experiment: Antitumor activity against human MDA-MB-231 cells xenografted in athymic nude mouse assessed as tumor volume on day 14 at initial dose of 2.0 mg/kg, ip qd X 5/week for 2 weeks and dose adjustments were made based upon effect or lack of effect on average body weight (32.5 mg/kg total dose); type: functional; conditions: route intraperitoneal
MDA-MB-231 [19] = experiment: Antitumor activity against human MDA-MB-231 cells xenografted in athymic nude mouse assessed as tumor volume on day 7 at initial dose of 2.0 mg/kg, ip qd X 5/week for 2 weeks and dose adjustments were made based upon effect or lack of effect on average body weight (32.5 mg/kg total dose); type: functional; conditions: route intraperitoneal
MDA-MB-231 [20] = experiment: Antitumor activity against human MDA-MB-231 cells xenografted in athymic nude mouse assessed as tumor volume on day 14 at initial dose of 3.0 mg/kg, po qd X 5/week for 2 weeks and dose adjustments were made based upon effect or lack of effect on average body weight (72.5 mg/kg total dose); type: functional
MDA-MB-231 [21] = experiment: Antitumor activity against human MDA-MB-231 cells xenografted in athymic nude mouse assessed as tumor volume on day 7 at initial dose of 3.0 mg/kg, po qd X 5/week for 2 weeks and dose adjustments were made based upon effect or lack of effect on average body weight (72.5 mg/kg total dose); type: functional
MDA-MB-231 [22] = experiment: Antitumor activity against human MDA-MB-231 cells xenografted in athymic nude mouse assessed as tumor volume on day 31 at initial dose of 3.0 mg/kg, po qd X 5/week for 2 weeks and dose adjustments were made based upon effect or lack of effect on average body weight (72.5 mg/kg total dose); type: functional
MDA-MB-231 [23] = experiment: Antitumor activity against human MDA-MB-231 cells xenografted in athymic nude mouse assessed as tumor volume on day 21 at initial dose of 3.0 mg/kg, po qd X 5/week for 2 weeks and dose adjustments were made based upon effect or lack of effect on average body weight (72.5 mg/kg total dose); type: functional
MDA-MB-231 [24] = experiment: Antitumor activity against human MDA-MB-231 cells xenografted in athymic nude mouse assessed as tumor volume on day 21 at initial dose of 2.0 mg/kg, ip qd X 5/week for 2 weeks and dose adjustments were made based upon effect or lack of effect on average body weight (32.5 mg/kg total dose); type: functional; conditions: route intraperitoneal

COc1cc2c(=O)n(CCN(C)C)c3c4cc5c(cc4nnc3c2cc1OC)OCO5
IC50 [1]: 4 nM
IC50 [2]: 740 nM
IC50 [3]: 5 nM
IC50 (P388 [4]): 230 nM
IC50 (P388 [5]): 2 nM
REC [6]: 0.3
IC50 [7]: 4 nM
IC50 [8]: 2 nM

COc1cc2c(=O)n(CCN(C)Cc3ccccc3)c3c4cc5c(cc4nnc3c2cc1OC)OCO5
IC50 [1]: 85 nM
IC50 [2]: > 10000 nM
IC50 [3]: 35 nM
IC50 (P388 [4]): 2800 nM
IC50 (P388 [5]): 25 nM
REC [6]: 0.4
IC50 [7]: 40 nM
IC50 [8]: 40 nM

COc1cc2c(=O)n(CCN(C)C)c3c4cc5c(cc4ncc3c2cc1OC)OCO5
IC50 [1]: 15 nM
IC50 [2]: 900 nM
IC50 [3]: 5 nM
REC [6]: 0.3
IC50 [7]: 12 nM
IC50 [8]: 2 nM

CC[C@@]1(O)C(=O)OCc2c1cc1n(c2=O)Cc2cc3ccccc3nc2-1 [CAMPTOTHECIN]
IC50 [3]: 15 nM
IC50 (P388 [4]): > 10000 nM
IC50 (P388 [5]): 9 nM
REC [6]: 0.2
IC50 [8]: 5 nM

COc1cc2c(=O)n(CCO)c3c4cc5c(cc4nnc3c2cc1OC)OCO5
IC50 [1]: 18 nM
IC50 [2]: 1300 nM
IC50 [3]: 10 nM
IC50 (P388 [4]): 700 nM
IC50 (P388 [5]): 12 nM
REC [6]: 0.3
IC50 [7]: 55 nM
IC50 [8]: 13 nM

COc1cc2c(=O)n(CCNC(C)C)c3c4cc5c(cc4nnc3c2cc1OC)OCO5
IC50 [1]: 7 nM
Activity (MDA-MB-231 [9]): 92 mm3
Activity (MDA-MB-231 [10]): 112 mm3
Activity (MDA-MB-231 [11]): 82 mm3
Activity (MDA-MB-231 [12]): 150 mm3
IC50 [2]: 300 nM
Activity (MDA-MB-231 [13]): 253 mm3
IC50 [3]: 0.5 nM
IC50 (P388 [4]): 110 nM
IC50 (P388 [5]): 2 nM
REC [6]: 0.08
IC50 [7]: 2 nM
IC50 [8]: 3 nM
Activity (MDA-MB-231 [14]): 72 mm3
Activity (MDA-MB-231 [15]): 231 mm3
Activity (MDA-MB-231 [16]): 185 mm3

COc1cc2c(=O)n(CCN(C)CCN(C)C)c3c4cc5c(cc4nnc3c2cc1OC)OCO5
IC50 [1]: 180 nM
IC50 [2]: 2200 nM
IC50 [3]: 17 nM
IC50 (P388 [4]): 300 nM
IC50 (P388 [5]): 19 nM
REC [6]: 0.4
IC50 [7]: 250 nM
IC50 [8]: 33 nM

COc1cc2c(=O)n(CCN(Cc3ccccc3)C(C)C)c3c4cc5c(cc4nnc3c2cc1OC)OCO5
IC50 [1]: 75 nM
IC50 [2]: 3300 nM
IC50 [3]: 16 nM
IC50 (P388 [4]): 2300 nM
IC50 (P388 [5]): 21 nM
REC [6]: 0.5
IC50 [7]: 40 nM
IC50 [8]: 45 nM

COc1cc2c(=O)n(CCn3ccnc3)c3c4cc5c(cc4nnc3c2cc1OC)OCO5
IC50 [1]: 3300 nM
IC50 [2]: > 10000 nM
IC50 [3]: 380 nM
IC50 (P388 [4]): > 10000 nM
IC50 (P388 [5]): 190 nM
REC [6]: 0.1
IC50 [7]: 3300 nM
IC50 [8]: 400 nM

CNCCn1c(=O)c2cc(OC)c(OC)cc2c2nnc3cc4c(cc3c21)OCO4
IC50 [1]: 23 nM
Activity (MDA-MB-231 [17]): 104 mm3
Activity (MDA-MB-231 [18]): 129 mm3
IC50 [2]: 230 nM
IC50 [3]: 0.7 nM
IC50 (P388 [4]): 200 nM
Activity (MDA-MB-231 [19]): 146 mm3
IC50 (P388 [5]): 1 nM
Activity (MDA-MB-231 [20]): 113 mm3
REC [6]: 0.03
IC50 [7]: 18 nM
Activity (MDA-MB-231 [21]): 116 mm3
IC50 [8]: 3 nM
Activity (MDA-MB-231 [22]): 177 mm3
Activity (MDA-MB-231 [23]): 144 mm3
Activity (MDA-MB-231 [24]): 109 mm3

COc1cc2c(=O)n(CCNC(CO)(CO)CO)c3c4cc5c(cc4nnc3c2cc1OC)OCO5
IC50 [1]: 280 nM
IC50 [2]: 5700 nM
IC50 [3]: 50 nM
IC50 (P388 [4]): 3000 nM
IC50 (P388 [5]): 40 nM
REC [6]: 0.2
IC50 [7]: 400 nM
IC50 [8]: 65 nM
